Numbered stars: 1 amine (or outer) side, 2 acyl side, 3 side chain; on linkers, the order of the positions; unused ones are H or OH. Bridge positions count the residues as written; N and C are the ends. Square brackets hold non-standard residues; d marks the D form. Peptide text beside a SMILES is read from it. * marks the point of attachment. Piperazine(2S-CO,4-Me) = CN1CCN[C@H](C(=O)O)C1; Phe(3-Me) = Cc1cccc(C[C@H](N)C(=O)O)c1; NH(4-Cl-2-F-phenyl) = Fc1cc(Cl)ccc1N*; Pro(4R-Me) = C[C@H]1CN[C@H](C(=O)O)C1; Hyp = O=C(O)[C@@H]1C[C@@H](O)CN1; NH(4-Me-phenyl) = Cc1ccc(N*)cc1; aThr = C[C@H](O)[C@H](N)C(=O)O; Pip = O=C(O)[C@@H]1CCCCN1; CO = O=C([*:1])[*:2]; X2 = Fc1cc(N*)ccc1Cl
What was measured:
[1] = Plasma protein binding, rapid equilibrium dialysis; assay type: in vitro ADME, human; conditions: 10 μM
Procedure: This assay determines plasma protein binding of a drug/compound and free drug concentration in plasma using rapid equilibrium dialysis, which allow the aqueous component of plasma containing the free drug/compound through a dialysis membrane (MWCO˜8,000).
Solutions were prepared at 10 mM in DMSO. Dulbecco's phosphate buffered saline (DPBS; pH 7.4) was obtained from Invitrogen (Carlsbad, Calif.). Single-Use RED (rapid equilibrium dialysis) device was obtained from Thermo scientific (Rockford, Ill.). Human plasma was obtained from Innovative Research INC (Novi, Michigan, Ill).
Sample preparation for plasma protein binding was modified from Waters' method. (Waters et al. (2008) J. Pharm. Sci. 97(10): 4586-95). The Teflon base plate with the RED inserts (MWCO 8 K) were allowed to use without any pre-condition the membrane inserts. Human plasma was thawed and centrifuged at 1000 rpm for 2 min to remove any particulates. Each compound was prepared at 10 μM in human plasma. This was done by adding 1 μL, of drug solution (10 mM in DMSO) to 1000 μL, of human plasma (0.1% DMSO). Spiked plasma solutions (300 μL) were placed into the sample chamber (indicated by the red ring) and 500 μL, of DPBS into the adjacent chamber. The plate was sealed and incubated at 37° C. on an orbital shaker (100 rpm) for 4 hours. After incubation, the seal was removed from the RED plate and the volume of the insert confirmed—little to no volume change occurred. Aliquots (50 μL) were removed from each side of the insert and dispensed into a 96-well deep plate. An equal volume of blank plasma or DPBS was added to the required wells to create analytically identical sample matrices (matrix matching). To each sample 200 μL, of ACN containing 4 μg/mL warfarin IS was added. All of the plates were sealed and mixed well at 600 rpm for 10 min and were centrifuged at 4000 rpm for 20 min. The supernatants (120 μL) were transferred to analytical plates for analysis by LCMS. Conditions for Waters ACQUITY-UPLC-MS-UV system were described separately. The test compound concentrations were quantified in both buffer and plasma chambers via peak areas relative to the internal standard. The percentage of the test compound bound to plasma was calculated on following equations: % Free=(Concentration buffer chamber/concentration plasma chamber)×100% and % Bound=100%-% Free.

[2] = test system: S. aureus ΔClpP; test: Minimal inhibitory concentration, microbroth dilution; assay type: cell-based, Staphylococcus aureus; conditions: MIC; ClpP inactivated
Outline: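 Following CLSI M7-A7 microbroth dilution, twofold serial dilutions of compound (top final concentration 200 μM) were combined with an equal volume of broth inoculum at about 10^5 cfu/mL. Plates were incubated aerobically at 37 °C overnight, and the MIC was the lowest concentration preventing visible growth.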

[3] = biological target: T1, Sa-ClpP (Staphylococcus aureus, UniProt Q2G036); test: ADEP displacement fluorescence polarization assay; assay type: binding, S. aureus; conditions: displacement of FP probe ADEP 2591 from Sa-ClpP
T1 construct: made in house; host or cells: E. coli BL21 (DE3)
T1 sequence (Q2G036 whole entry): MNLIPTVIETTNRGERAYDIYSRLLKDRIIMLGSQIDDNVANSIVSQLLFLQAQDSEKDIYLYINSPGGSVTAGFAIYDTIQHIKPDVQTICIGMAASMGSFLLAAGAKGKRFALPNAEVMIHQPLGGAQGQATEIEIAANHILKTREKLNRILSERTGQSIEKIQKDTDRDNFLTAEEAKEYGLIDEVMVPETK
Procedure: A fluorescence polarization (FP) assay was used to determine the activity of the disclosed compounds in displacing an ADEP analogue from ClpP. Briefly, the assay was performed in black 384 well, flat bottom, low volume plates (Greiner Bio-One, Monroe, N.C., catalog #784076). 20 μL of a pre-equilibrated (1 hr, room temperature) master mix (15 μM Sa-ClpP, 2% DMSO (v/v) and 50 nM FP probe in TrisHCl, pH 8.0)) was pipetted into each well using a Well-Mate (Thermo Scientific, Waltham, Mass.). Sa-ClpP was prepared as described above for the ClpP activation assay. The FP probe was ADEP 2591 (structure shown above). The ADEP 2591 comprises a TAMRA fluorophore linked to a core based on modified ADEP 2378 via a short alkyl linker. Using pin transfer, approximately 0.4 μL (2% v/v DMSO) of each compound or control was added per well. After addition of compounds and controls, plates were allowed to incubate for an additional 120 minutes at room temperature. All assays were performed in triplicate. Polarization was monitored using an EnVision Multilabel reader (Perkin-Elmer, Waltham, Mass.) by exciting the FP probe at 530±25 nm, and monitoring fluorescence intensity of both parallel and perpendicular polarized light at 579±25 nm. Readout was in millipolarization units (mP).
Signal gain and G factors were determined in wells containing 200 μM ADEP 2378, which had been previously verified (data not shown) as containing completely unbound ADEP 2591. Data collected was normalized to values obtained from positive (200 μM ADEP 2378) or negative (DMSO) controls. Curves were fit with non-linear regression using the equation “log [inhibitor] vs. Response-variable slope (four parameters)-symmetrical” in the program Prism 6 (GraphPad Software, La Jolla, Calif. USA, www.graphpad.com). The structures for ADEP 2378 and ADEP 2591 are shown above. ADEP 2378 is (E)-N—((S)-1-(((2R,6S,8aS,14aS,20S,23aS)-2,6-dimethyl-5,8,14,19,23-pentaoxooctadecahydro-1H,5H,14H,19H-pyrido[2,1-i]dipyrrolo[2,1-c:2′,1′-1][1]oxa[4,7,10,13]tetraazacyclohexadecin-20-yl)amino)-1-oxo-3-phenylpropan-2-yl)pent-2-enamide. ADEP 2591 is 5-(3-(3-((6S,9S,11aS,17S,20aS)-6,10-dimethyl-5,8,11,16,20-pentaoxo-17-((S)-2-((E)-pent-2-enamido)-3-phenylpropanamido)hexadecahydro-1H,5H,16H-dipyrrolo[2,1-c:2′,1′-1][1]oxa[4,7,10,13]tetraazacyclohexadecin-9-yl)propyl)thioureido)-2-(6-(dimethylamino)-3-(dimethyliminio)-3H-xanthen-9-yl)benzoate.

Row | SMILES | Human ([1]; human, 4 h, pH 7.4) [%] | Minimal Inhibitory Concentrations (μM) S. aureus ΔClpP [2] [µM] | IC50 [3] [µM] | Human ([1]; plasma binding, % Bound, human plasma) [%]
1 | Cc1cccc(C[C@H](NC(=O)Nc2ccc(Cl)cc2F)C(=O)N[C@@H]2C(=O)N3C[C@H](O)C[C@H]3C(=O)N3CCCC[C@H]3C(=O)N[C@@H](C)C(=O)N3C[C@H](C)C[C@H]3C(=O)O[C@H]2C)c1 [Compound 6, (S)-2-(3-(4-CHLORO-2-FLUOROPHENYL)UREIDO)-N-((2R,6S,8AS,14AS,16R,20S,21S,23AS)-16-HYDROXY-2,6,21-TRIMETHYL-5,8,14,19,23-PENTAOXOOCTADECAHYDRO-1H,5H,14H,19H-PYRIDO[2,1-I]DIPYRROLO[2,1-C:2′,1′-L][1]OXA[4,7,10,13]TETRAAZACYCLOHEXADECIN-20-YL)-3-(M-TOLYL)PROPANAMIDE] ({NH(4-Cl-2-F-phenyl)-CO}-[Phe(3-Me)][aThr][Hyp][Pip]A[Pro(4R-Me)]; ester 2-C) | 99.7 ± 0 | >20 | 3 ± 0.2 | –
2 | Cc1cccc(C[C@H](NC(=O)Nc2ccc(Cl)cc2F)C(=O)N[C@H]2COC(=O)[C@@H]3C[C@@H](C)CN3C(=O)[C@H](C)NC(=O)[C@@H]3CCCCN3C(=O)[C@@H]3CCCN3C2=O)c1 [Compound 8, (S)-2-(3-(4-CHLORO-2-FLUOROPHENYL)UREIDO)-N-((2R,6S,8AS,14AS,20S,23AS)-2,6-DIMETHYL-5,8,14,19,23-PENTAOXOOCTADECAHYDRO-1H,5H,14H,19H-PYRIDO[2,1-I]DIPYRROLO[2,1-C:2′,1′-L][1]OXA[4,7,10,13]TETRAAZACYCLOHEXADECIN-20-YL)-3-(M-TOLYL)PROPANAMIDE] | 98.2 ± 0.2 | >20 | 3.51 ± 0.1 | –
3 | Cc1cccc(C[C@H](NC(=O)Nc2ccc(Cl)cc2F)C(=O)N[C@H]2COC(=O)[C@@H]3C[C@@H](C)CN3C(=O)[C@H](C)NC(=O)[C@@H]3CCCCN3C(=O)[C@@H]3C[C@@H](O)CN3C2=O)c1 [Compound 10] | 99.7 ± 0.2 | >20 | 4.65 ± 0.2 | –
4 | Cc1cccc(C[C@H](NC(=O)Nc2ccc(Cl)cc2F)C(=O)N[C@@H]2C(=O)N3CCC[C@H]3C(=O)N3CCN(C)C[C@H]3C(=O)N[C@@H](C)C(=O)N3C[C@H](C)C[C@H]3C(=O)O[C@H]2C)c1 [Compound 11, (S)-2-(3-(4-CHLORO-2-FLUOROPHENYL)UREIDO)-N-((6AS,12S,13S,15AS,17R,21S,23AS)-2,13,17,21-TETRAMETHYL-6,11,15,20,23-PENTAOXOOCTADECAHYDRO-2H,6H,11H,15H-PYRAZINO[2,1-I]DIPYRROLO[2,1-C:2′,1′-L][1]OXA[4,7,10,13]TETRAAZACYCLOHEXADECIN-12-YL)-3-(M-TOLYL)PROPANAMIDE] ({NH(4-Cl-2-F-phenyl)-CO}-[Phe(3-Me)][aThr]P[Piperazine(2S-CO,4-Me)]A[Pro(4R-Me)]; ester 2-C) | 97.9 ± 0.3 | >20 | 3.45 ± 0.2 | –
5 | Cc1cccc(C[C@H](NC(=O)Nc2ccc(Cl)cc2F)C(=O)N[C@H]2COC(=O)[C@@H]3C[C@@H](C)CN3C(=O)[C@H](C)NC(=O)[C@@H]3CCCCN3C(=O)[C@@H]3C[C@H](N)CN3C2=O)c1 [Compound 12, (S)—N-((2R,6S,8AS,14AS,16S,20S,23AS)-16-AMINO-2,6-DIMETHYL-5,8,14,19,23-PENTAOXOOCTADECAHYDRO-1H,5H,14H,19H-PYRIDO[2,1-I]DIPYRROLO[2,1-C:2′,1′-L][1]OXA[4,7,10,13]TETRAAZACYCLOHEXADECIN-20-YL)-2-(3-(4-CHLORO-2-FLUOROPHENYL)UREIDO)-3-(M-TOLYL)PROPANAMIDE] | 99.9 ± 0.2 | >20 | 6.03 ± 0.3 | –
6 | Cc1cccc(C[C@H](NC(=O)Nc2ccc(Cl)cc2F)C(=O)N[C@H]2COC(=O)[C@@H]3C[C@@H](C)CN3C(=O)[C@H](C)NC(=O)[C@@H]3CN(C)CCN3C(=O)[C@@H]3CCCN3C2=O)c1 [Compound 13, (S)-2-(3-(4-CHLORO-2-FLUOROPHENYL)UREIDO)-3-(M-TOLYL)-N-((6AS,12S,15AS,17R,21S,23AS)-2,17,21-TRIMETHYL-6,11,15,20,23-PENTAOXOOCTADECAHYDRO-2H,6H,11H,15H-PYRAZINO[2,1-I]DIPYRROLO[2,1-C:2′,1′-L][1]OXA[4,7,10,13]TETRAAZACYCLOHEXADECIN-12-YL)PROPANAMIDE] ({NH(4-Cl-2-F-phenyl)-CO}-[Phe(3-Me)]SP[Piperazine(2S-CO,4-Me)]A[Pro(4R-Me)]; ester 2-C) | 97.0 ± 0.6 | >20 | 16.4 ± 0.8 | –
7 | Cc1cccc(C[C@H](NC(=O)Nc2ccc(Cl)c(F)c2)C(=O)N[C@H]2COC(=O)[C@@H]3C[C@@H](C)CN3C(=O)[C@H](C)NC(=O)[C@@H]3CN(C)CCN3C(=O)[C@@H]3CCCN3C2=O)c1 [Compound 14, (S)-2-(3-(4-CHLORO-3-FLUOROPHENYL)UREIDO)-3-(M-TOLYL)-N-((6AS,12S,15AS,17R,21S,23AS)-2,17,21-TRIMETHYL-6,11,15,20,23-PENTAOXOOCTADECAHYDRO-2H,6H,11H,15H-PYRAZINO[2,1-I]DIPYRROLO[2,1-C:2′,1′-L][1]OXA[4,7,10,13]TETRAAZACYCLOHEXADECIN-12-YL)PROPANAMIDE] ({X2-CO}-[Phe(3-Me)]SP[Piperazine(2S-CO,4-Me)]A[Pro(4R-Me)]; ester 2-C) | 99.1 ± 0.2 | >20 | 5.19 ± 0.2 | –
8 | Cc1ccc(NC(=O)N[C@@H](Cc2cccc(C)c2)C(=O)N[C@H]2COC(=O)[C@@H]3C[C@@H](C)CN3C(=O)[C@H](C)NC(=O)[C@@H]3CN(C)CCN3C(=O)[C@@H]3CCCN3C2=O)cc1 [Compound 15, (S)-3-(M-TOLYL)-2-(3-(P-TOLYL)UREIDO)-N-((6AS,12S,15AS,17R,21S,23AS)-2,17,21-TRIMETHYL-6,11,15,20,23-PENTAOXOOCTADECAHYDRO-2H,6H,11H,15H-PYRAZINO[2,1-I]DIPYRROLO[2,1-C:2′,1′-L][1]OXA[4,7,10,13]TETRAAZACYCLOHEXADECIN-12-YL)PROPANAMIDE] ({NH(4-Me-phenyl)-CO}-[Phe(3-Me)]SP[Piperazine(2S-CO,4-Me)]A[Pro(4R-Me)]; ester 2-C) | – | >20 | 8.12 ± 0.2 | 95.2 ± 1.5
